Test results from patent US20060100431A1, “Biologically active compounds” (Amura Therapeutics Limited, priority 2002, published 2006).

Assays:
Format in all cases: biochemical
[1] = target: Wild-type cruzipain (Trypanosoma cruzi, UniProt P25779); experiment: Trypanosoma cruzi cruzipain peptidase activity assay (Ki); settings: read-out: Ki, inhibitors of cruzain and cruzipains
Procedure, shortened: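 Native cruzipain from T. cruzi Dm28 epimastigotes, 2.5 nM, in 100 mM sodium phosphate pH 6.75 with 1 mM EDTA and 10 mM L-cysteine, 25 °C, DMSO <1%. Rates taken from continuous fluorogenic substrate read; Ki by regression assuming reversible pure-competitive inhibition.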

[2] = target: T1, human cathepsin L (Homo sapiens, UniProt P07711); experiment: Cathepsin L peptidase activity assay (Ki); settings: read-out: Ki, inhibitors of cathepsin L
T1 construct: purchased CN Biosciences
T1 sequence (P07711 114-333): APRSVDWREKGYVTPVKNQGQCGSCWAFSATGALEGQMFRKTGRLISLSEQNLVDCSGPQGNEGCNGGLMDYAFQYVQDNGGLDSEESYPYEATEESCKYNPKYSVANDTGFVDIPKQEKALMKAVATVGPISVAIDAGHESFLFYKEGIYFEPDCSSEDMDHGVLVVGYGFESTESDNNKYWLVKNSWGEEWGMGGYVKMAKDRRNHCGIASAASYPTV
Procedure, shortened: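 Human cathepsin L at 1 nM with Ac-Phe-Arg-AMC at its KM^app (~20 μM) in 10 mM bis-tris-propane pH 6.5, 1 mM EDTA, 5 mM 2-mercaptoethanol, 1 mM CaCl2, DMSO <1%, 25±1° C. Reaction enzyme-initiated; AMC fluorescence (ex 365/em 450 nm) monitored over time.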

[3] = target: T2, Bovine cathepsin S (Bos taurus, UniProt P25326); experiment: Cathepsin S peptidase activity assay, bovine enzyme (Ki); settings: species of cathepsin S not given; read-out: Ki, inhibitors of cathepsin S
T2 construct: purchased CN Biosciences
T2 sequence (P25326 115-331): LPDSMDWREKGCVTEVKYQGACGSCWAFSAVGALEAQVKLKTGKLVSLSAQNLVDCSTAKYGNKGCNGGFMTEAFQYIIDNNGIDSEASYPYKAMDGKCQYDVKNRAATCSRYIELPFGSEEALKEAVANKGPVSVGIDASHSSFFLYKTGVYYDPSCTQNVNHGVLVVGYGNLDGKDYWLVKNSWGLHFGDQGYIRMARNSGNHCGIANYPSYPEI
Protocol: Unless otherwise stated, all general chemicals and biochemicals were purchased from either the Sigma Chemical Company, Poole, Dorset, U.K or from Fisher Scientific UK, Loughborough, Leicestershire, U.K. Absorbance assays were carried out in flat-bottomed 96-well plates (Spectra; Greiner Bio-One Ltd., Stonehouse, Gloucestershire, U.K.) using a SpectraMax PLUS384 plate reader (Molecular Devices, Crawley, U.K.). Fluorescence high throughput assays were carried out in either 384-well microtitre plates (Corning Costar 3705 plates, Fisher Scientific) or 96-well ‘U’ bottomed Microfluor W1 microtitre plates (Thermo Labsystems, Ashford, Middlesex, U.K.). Fluorescence assays were monitored using a SpectraMax Gemini fluorescence plate reader (Molecular Devices). For substrates employing either a 7-amino-4-methylcoumarin (AMC) or a 7-amino-4-trifluoromethylcoumarin (AFC) fluorophore, assays were monitored at an excitation wavelength of 365 nm and an emission wavelength of 450 nm and the fluorescence plate reader calibrated with AMC. For substrates employing a 3-amino-benzoyl (Abz) fluorophore, assays were monitored at an excitation wavelength of 310 nm and an emission wavelength of 445 nm; the fluorescence plate reader calibrated with 3-amino-benzamide (Fluka). Unless otherwise indicated, all the peptidase substrates were purchased from Bachem UK, St Helens, Merseyside, UK. Substrates utilizing fluorescence resonance energy transfer methodology (i.e. FRET-based substrates) were synthesized at Incenta Limited using published methods (Atherton & Sheppard, Solid Phase Peptide Synthesis, IRL Press, Oxford, U.K, 1989) and employed Abz (2-aminobenzoyl) as the fluorescence donor and 3-nitro-tyrosine [Tyr(NO2)] as the fluorescence quencher (Meldal, M. and Breddam, K., Anal. Biochem, 195, 141-147, 1991). Hydroxyethylpiperazine ethanesulfonate (HEPES), tris-hydroxylmethyl aminomethane (tris) base, bis-tris-propane and all the biological detergents (e.g. CHAPS, zwittergents, etc.) were purchased from CN Biosciences UK, Beeston, Nottinghamshire, U.K. Glycerol was purchased from Amersham Pharmacia Biotech, Little Chalfont, Buckinghamshire, U.K. Stock solutions of substrate or inhibitor were made up to 10 mM in 100% dimethylsulfoxide (DMSO) (Rathburns, Glasgow, U.K.) and diluted as appropriately required. In all cases the DMSO concentration in the assays was maintained at less than 1% (vol./vol.).
Assay protocols were based on literature precedent (Table 4; Barrett, A. J., Rawlings, N. D. and Woessner, J. F., 1998, Handbook of Proteolytic Enzymes, Academic Press, London and references therein) and modified as required to suit local assay protocols. Enzyme was added as required to initiate the reaction and the activity, as judged by the change in fluorescence upon conversion of substrate to product, was monitored over time. All assays were carried out at 25±1° C.
Bovine cathepsin S, human cathepsin L, human cathepsin H and human cathepsin B were obtained from CN Biosciences. Recombinant human cathepsin S, human cathepsin K and human cathepsin X were obtained from Dr. Boris Turk (Josef Stefan Institute, Ljubljana, Slovenia). Unless otherwise stated, all peptidase activity assays were carried out in 10 mM bis-tris-propane (BTP), pH 6.5 containing 1 mM EDTA, 5 mM 2-mercaptoethanol and 1 mM CaCl2. Human cathepsin H activity assays were carried out in 10 mM BTP pH 6.5, 142 mM NaCl2, 1 mM CaCl2, 1 mM EDTA, 1 mM DTT, 0.035 mM Zwittergent 3-16. Human cathepsin K assays were carried out in 100 mM sodium acetate; pH 5.5 containing 20 mM L-cysteine and 1 mM EDTA (Bossard, M. J., et. al., J. Biol. Chem., 21, 12517-12524, 1996). Human cathepsin X assays were carried out in 100 mM sodium acetate; pH 5.5 containing 20 mM L-cysteine; 0.05% (w/v) Brij 35 and 1 mM EDTA (Santamaria, I., et. al., J. Biol. Chem., 273, 16816-16823, 1998; Klemencic, J, et al., Eur. J. Biochem., 267, 5404-5412, 2000).

[4] = target: T3, CPB2.8ΔCTE (Leishmania mexicana, UniProt P36400); experiment: Leishmania mexicana cysteine protease B (CPB) peptidase activity assay (Ki); settings: Ki, inhibitors of Leismania mexicana CPB protease
T3 construct: Wild-type recombinant CPB without the C-terminal extention (i.e. CPB2.8ΔCTE); Dr. Jeremy Mottram (Wellcome Centre for Molecular Parasitology, University of Glasgow)
T3 sequence (P36400 126-343, stated change not applied): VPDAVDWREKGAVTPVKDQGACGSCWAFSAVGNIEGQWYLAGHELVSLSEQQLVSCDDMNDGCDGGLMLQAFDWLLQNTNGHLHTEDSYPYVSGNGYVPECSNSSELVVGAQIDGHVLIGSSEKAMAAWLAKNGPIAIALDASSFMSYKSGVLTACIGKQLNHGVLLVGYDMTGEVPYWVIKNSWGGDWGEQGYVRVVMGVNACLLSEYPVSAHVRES
Procedure, shortened: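 Recombinant CPB2.8ΔCTE (0.25 nM) was assayed in 100 mM sodium acetate pH 5.5 with 1 mM EDTA, 200 mM NaCl and 10 mM DTT at 25 °C, DMSO <1%, enzyme added to start. Rates were taken from continuous fluorescence slopes; apparent Ki was fitted assuming reversible, pure-competitive inhibition.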

Chain of Wild-type cruzipain (P25779 whole entry): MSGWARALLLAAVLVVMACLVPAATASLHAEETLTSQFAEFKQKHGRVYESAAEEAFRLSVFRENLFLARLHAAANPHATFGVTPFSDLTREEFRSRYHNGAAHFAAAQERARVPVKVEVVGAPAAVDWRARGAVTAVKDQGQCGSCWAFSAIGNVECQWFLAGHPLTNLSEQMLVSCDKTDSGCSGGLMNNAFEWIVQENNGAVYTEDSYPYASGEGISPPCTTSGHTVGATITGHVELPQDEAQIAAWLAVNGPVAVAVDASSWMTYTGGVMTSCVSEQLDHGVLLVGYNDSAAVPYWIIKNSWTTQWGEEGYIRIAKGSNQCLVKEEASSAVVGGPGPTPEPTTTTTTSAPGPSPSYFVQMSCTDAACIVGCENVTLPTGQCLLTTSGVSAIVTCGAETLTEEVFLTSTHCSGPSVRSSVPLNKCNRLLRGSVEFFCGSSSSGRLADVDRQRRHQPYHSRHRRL

Structure (SMILES) | Ki [1] [µM] | Ki [2] [µM] | Ki [3] [µM] | Ki [4] [µM]
CC(C)C[C@H](NC(=O)c1ccc2ccccc2n1)C(=O)N1CC[C@@H]2[C@H]1C(=O)CN2C(=O)c1ccccc1 [Example 8, (3aR,6aS)-Quinoline-2-carboxylic acid [(1S)-1-(4-benzoyl-6-oxo-hexahydro-pyrrolo[3,2-b]pyrrole-1-carbonyl)-3-methyl-butyl]-amide] | < 5 | < 5 | < 5 | –
CC(C)C[C@H](NC(=O)c1cc2ccccc2o1)C(=O)N1CC[C@@H]2[C@H]1C(=O)CN2C(=O)c1ccccc1 [Example 9, (3aR,6aS)-Benzofuran-2-carboxylic acid [(1S)-1-(4-benzoyl-6-oxo-hexahydropyrrolo[3,2-b]pyrrole-1-carbonyl)-3-methyl-butyl]-amide] | < 5 | < 5 | < 5 | –
Cc1c(C(=O)N[C@@H](CC(C)C)C(=O)N2CC[C@@H]3[C@H]2C(=O)CN3C(=O)c2ccccc2)oc2ccccc12 [Example 10, (3aR,6aS)-3-Methyl-benzofuran-2-carboxylic acid [(1S)-1-(4-benzoyl-6-oxo-hexahydro-pyrrolo[3,2-b]pyrrole-1-carbonyl)-3-methyl-butyl]-amide] | < 5 | < 5 | < 5 | –
CC(C)C[C@H](NC(=O)c1cnc2ccccc2n1)C(=O)N1CC[C@@H]2[C@H]1C(=O)CN2C(=O)c1ccccc1 [Example 12, (3aR,6aS)-Quinoxaline-2-carboxylic acid [(1S)-1-(4-benzoyl-6-oxo-hexahydro-pyrrolo[3,2-b]pyrrole-1-carbonyl)-3-methyl-butyl]-amide] | < 5 | < 5 | < 5 | –
CC(C)C[C@H](NC(=O)c1cccc(Oc2ccccc2)c1)C(=O)N1CC[C@@H]2[C@H]1C(=O)CN2C(=O)c1ccccc1 [Example 13, (3aR,6aS)-N-[(1S)-1-(4-Benzoyl-6-oxo-hexahydro-pyrrolo[3,2-b]pyrrole-1-carbonyl)-3-methyl-butyl]-3-phenoxy-benzamide] | < 5 | – | < 5 | < 5
CC(C)C[C@H](NC(=O)c1cc2ccccc2o1)C(=O)N1CC[C@@H]2[C@H]1C(=O)CN2C(=O)c1cccnc1 [Example 16, (3aR,6aS)-Benzofuran-2-carboxylic acid {(1S)-3-methyl-1-[6-oxo-4-(pyridine-3-carbonyl)-hexahydro-pyrrolo[3,2-b]pyrrole-1-carbonyl]-butyl}-amide] | < 5 | < 5 | < 5 | < 5
CC(C)C[C@H](NC(=O)c1cnc2ccccc2n1)C(=O)N1CC[C@@H]2[C@H]1C(=O)CN2C(=O)c1cccnc1 [Example 19, (3aR,6aS)-Quinoxaline-2-carboxylic acid {(1S)-3-methyl-1-[6-oxo-4-(pyridine-3-carbonyl)-hexahydro-pyrrolo[3,2-b]pyrrole-1-carbonyl]-butyl}-amide] | < 5 | – | < 5 | –
CC(C)C[C@H](NC(=O)c1cccc(Oc2ccccc2)c1)C(=O)N1CC[C@@H]2[C@H]1C(=O)CN2C(=O)c1cccnc1 [Example 20, (3aR,6aS)-N-{(1S)-3-Methyl-1-[6-oxo-4-(pyridine-3-carbonyl)-hexahydro-pyrrolo[3,2-b]pyrrole-1-carbonyl]-butyl}-3-phenoxy-benzamide] | < 5 | – | < 5 | < 5
CC(C)C[C@H](NC(=O)c1cccc(CN)c1)C(=O)N1CC[C@@H]2[C@H]1C(=O)CN2S(=O)(=O)c1ccccc1 [Example 123, (3aR,6aS)-3-Aminomethyl-N-[(1S)-1-(4-benzenesulfonyl-6-oxo-hexahydro-pyrrolo[3,2-b]pyrrole-1-carbonyl)-3-methyl-butyl]-benzamide] | – | – | < 5 | –
O=C(N[C@@H](CC1CC1)C(=O)N1CC[C@@H]2[C@H]1C(=O)CN2C(=O)c1ccccc1)c1ccsc1 [Example 187, (3aR,6aS)-Thiophene-3-carboxylic acid [(1S)-2-(4-benzoyl-6-oxo-hexahydro-pyrrolo[3,2-b]pyrrole-1-yl)-1-cyclopropylmethyl-2-oxo-ethyl]-amide] | – | – | < 5 | –
CS(=O)(=O)c1ccccc1C(=O)N1CC(=O)[C@@H]2[C@H]1CCN2C(=O)[C@H](Cc1ccc(O)cc1)NC(=O)c1cccc(Br)c1 [Example 303, (3aR,6aS)-3-Bromo-N-{(1S)-1-(4-hydroxy-benzyl)-2-[4-(2-methanesulfonyl-benzoyl)-6-oxo-hexahydro-pyrrolo[3,2-b]pyrrole-1-yl]-2-oxo-ethyl}-benzamide] | < 5 | – | < 5 | –
O=C(N[C@@H](Cc1ccc(O)cc1)C(=O)N1CC[C@@H]2[C@H]1C(=O)CN2C(=O)c1ccccc1)c1ccc2ncsc2c1 [Example 317, (3aR,6aS)-Benzothiazole-6-carboxylic acid [(1S)-2-(4-benzoyl-6-oxo-hexahydro-pyrrolo[3,2-b]pyrrole-1-yl)-1-(4-hydroxy-benzyl)-2-oxo-ethyl]-amide] | < 5 | – | < 5 | –
O=C(N[C@@H](Cc1ccc(O)cc1)C(=O)N1CC[C@@H]2[C@H]1C(=O)CN2C(=O)c1ccccc1)c1cccc(Cl)c1 [Example 334, (3aR,6aS)-N-[(1S)-2-(4-Benzoyl-6-oxo-hexahydro-pyrrolo[3,2-b]pyrrol-1-yl)-1-(4-hydroxy-benzyl)-2-oxo-ethyl]-3-chloro-benzamide] | < 5 | – | < 5 | –
O=C(N[C@@H](Cc1ccc(O)cc1)C(=O)N1CC[C@@H]2[C@H]1C(=O)CN2C(=O)c1ccccc1)c1cccc(F)c1 [Example 335, (3aR,6aS)-N-[(1S)-2-(4-Benzoyl-6-oxo-hexahydro-pyrrolo[3,2-b]pyrrol-1-yl)-1-(4-hydroxy-benzyl)-2-oxo-ethyl]-3-fluoro-benzamide] | < 5 | – | < 5 | –
CC(C)C[C@H](NC(=O)c1cccc(Br)c1)C(=O)N1CC[C@@H]2[C@H]1C(=O)CN2C(=O)c1ccccc1 [Example 340, (3aR,6aS)-N-[(1S)-1-(4-Benzoyl-6-oxo-hexahydro-pyrrolo[3,2-b]pyrrole-1-carbonyl)-3-methyl-butyl]-3-bromo-benzamide] | – | – | < 5 | –
